“Also recorded” adds a separate entry of the source.
What follows are substances tested on microorganisms (assay: Targeting peptide binding to target microorganisms (Tables 3, 10, 12)). Details: peptide binding in aqueous buffers that varied with peptide solubility; preferably 1x PBS.
Text: In certain embodiments, the targeting moiety comprises one or more targeting peptides that bind particular bacteria, fungi, and/or yeasts, and/or algae, and/or viruses and/or that bind particular groups of bacteria, and/or groups of fungi, and/or groups of yeasts, and/or groups of algae.
In certain embodiments the targeting peptides include peptides comprising or consisting of one or more of the amino acid sequences shown in Table 3 (SEQ ID NOs:13-1566). In various embodiments the peptides include peptides comprising or consisting of the retro, inverso, retro-inverso, and/or beta form of one or more of the amino acid sequences shown in Table 3. Also contemplated are circular permutations of these sequences as well as peptides comprising or consisting of the retro, inverso, retro-inverso, and/or beta form of such circular permutations.
In certain embodiments the targeting peptide can comprise one or more domains capable of binding, specifically binding, or preferentially binding to a microorganism, e.g., a target microbial organism (see, e.g., Table 3). In certain embodiment, the targeting peptide be identified via screening peptide libraries. For example, a phage display peptide library can be screened against a target microbial organism or a desired antigen or epitope thereof. Any peptide identified through such screening can be used as a targeting peptide for the target microbial organism.

Substance	Target(s) (microorganism bound by the targeting peptide)
1T-4 (LDAYGELVGGN; Peptide with targeting and/or antimicrobial activity)	S. gordonii; also recorded: S. sanguinis; also recorded: S. oralis; also recorded: V. atypica; also recorded: L. casei; also recorded: S. mutans
1T-6 (KFINGVLSQFVLERK; Peptide with targeting and/or antimicrobial activity)	S. mutans
1T-7 (SQRIIEPVKSPQPYPGFSVS; Peptide with targeting and/or antimicrobial activity)	M. xanthus
1T-8 (FSVAACGEQRAVTFVLLIEDLI; Peptide with targeting and/or antimicrobial activity)	M. xanthus
1T-9 (WAWAESPRCVSTRSNIHALAFRVEVAALT; Peptide with targeting and/or antimicrobial activity)	M. xanthus
1T-10 (SPAGLPGDGDEA; Peptide with targeting and/or antimicrobial activity)	M. xanthus
1T-11 (RISE; Peptide with targeting and/or antimicrobial activity)	S. mutans; also recorded: S. epidermidis; also recorded: P. aeruginosa
1T-12 (FGNIFKGLKDVIETIVKWTAAK; Peptide with targeting and/or antimicrobial activity)	C. xerosis; also recorded: C. striatum; also recorded: S. epidermidis; also recorded: S. mutans
1T-13 (FRSPCINNNSLQPPGVYPAR; Peptide with targeting and/or antimicrobial activity)	S. aureus; also recorded: S. epidermidis; also recorded: P. aeruginosa
1T-14 (ALAGLAGLISGK; Peptide with targeting and/or antimicrobial activity)	S. mutans; also recorded: S. aureus; also recorded: S. epidermidis; also recorded: C. xerosis
1T-15 (DVILRVEAQ; Peptide with targeting and/or antimicrobial activity)	S. mutans
1T-16 (IDMR; Peptide with targeting and/or antimicrobial activity)	P. aeruginosa
1T-17 (NNAIVYIS; Peptide with targeting and/or antimicrobial activity)	S. mutans
1T-18 (YSKTLHFAD; Peptide with targeting and/or antimicrobial activity)	S. aureus; also recorded: S. epidermidis; also recorded: C. striatum; also recorded: P. aeruginosa
1T-19 (PGAFRNPQMPRG; Peptide with targeting and/or antimicrobial activity)	S. aureus; also recorded: S. epidermidis; also recorded: P. aeruginosa
1T-20 (PALVDLSNKEAVWAVLDDHS; Peptide with targeting and/or antimicrobial activity)	S. mutans; also recorded: P. aeruginosa
1T-21 (YVEEAVRAALKKEARISTEDTPVNLPSFDC; Peptide with targeting and/or antimicrobial activity)	S. mutans; also recorded: P. aeruginosa
1T-22 (VPLDDGTRRPEVARNRDKDRED; Peptide with targeting and/or antimicrobial activity)	S. epidermidis; also recorded: P. aeruginosa
1T-23 (PALVDLSNKEAVWAVLDDHS; Peptide with targeting and/or antimicrobial activity)	S. mutans; also recorded: P. aeruginosa
1T-24 (EEAEEKLAEVSQAVKRLVR; Peptide with targeting and/or antimicrobial activity)	P. aeruginosa

Substance	Target(s) (microorganism bound by the targeting peptide)
1T-25 (VGLDVSVLVLFFGLQLLSVLLGAMIR; Peptide with targeting and/or antimicrobial activity)	S. aureus; also recorded: S. epidermidis; also recorded: C. xerosis; also recorded: C. striatum; also recorded: P. aeruginosa
1T-26 (LTILPTTFFAIIVPILAVAFIAYSGFKIKGIVEHKDQW; Peptide with targeting and/or antimicrobial activity)	S. mutans; also recorded: S. aureus; also recorded: S. epidermidis; also recorded: C. jeikeium; also recorded: C. xerosis; also recorded: C. striatum; also recorded: P. aeruginosa
1T-27 (ALFVSLEQFLVVVAKSVFALCHSGTLS; Peptide with targeting and/or antimicrobial activity)	S. mutans; also recorded: S. aureus; also recorded: S. epidermidis; also recorded: C. jeikeium; also recorded: C. xerosis; also recorded: C. striatum; also recorded: P. aeruginosa
1T-28 (VSRDEAMEFIDREWTTLQPAGKSHA; Peptide with targeting and/or antimicrobial activity)	P. aeruginosa
1T-29 (GSVIKKRRKRMSKKKHRKMLRRTRVQRRKLGK; Peptide with targeting and/or antimicrobial activity)	S. epidermidis; also recorded: C. jeikeium; also recorded: C. xerosis; also recorded: C. striatum; also recorded: P. aeruginosa; also recorded: S. mutans; also recorded: S. aureus
1T-30 (GKAKPYQVRQVLRAVDKLETRRKKGGR; Peptide with targeting and/or antimicrobial activity)	S. aureus; also recorded: S. epidermidis; also recorded: C. xerosis; also recorded: C. striatum; also recorded: P. aeruginosa
1T-31 (NATGTDIGEVTLTLGRFS; Peptide with targeting and/or antimicrobial activity)	S. mutans; also recorded: P. aeruginosa
1T-32 (VSFLAGWLCLGLAAWRLGNA; Peptide with targeting and/or antimicrobial activity)	S. mutans
1T-33 (VRTLTILVIFIFNYLKSISYKLKQPFENNLAQSMISI; Peptide with targeting and/or antimicrobial activity)	S. aureus; also recorded: S. epidermidis; also recorded: C. jeikeium; also recorded: C. xerosis; also recorded: C. striatum; also recorded: P. aeruginosa
1T-34 (AFWLNILLTLLGYIPGIVHAVYIIAKR; Peptide with targeting and/or antimicrobial activity)	S. aureus; also recorded: S. epidermidis; also recorded: C. jeikeium; also recorded: C. xerosis; also recorded: C. striatum; also recorded: P. aeruginosa
1T-35 (EICLTLVFPIRGSYSEAAKFPVPIHIVEDGTVELPK; Peptide with targeting and/or antimicrobial activity)	P. aeruginosa
1T-36 (VYRHLRFIDGKLVEIRLERK; Peptide with targeting and/or antimicrobial activity)	S. aureus; also recorded: S. epidermidis; also recorded: C. jeikeium; also recorded: C. xerosis; also recorded: C. striatum; also recorded: P. aeruginosa
1T-37 (YIVGALVILAVAGLIYSMLRKA; Peptide with targeting and/or antimicrobial activity)	S. mutans; also recorded: S. aereus; also recorded: S. epidermidis; also recorded: C. jeikeium; also recorded: C. xerosis; also recorded: C. striatum; also recorded: P. aeruginosa
1T-38 (VMFVLTRGRSPRPMIPAY; Peptide with targeting and/or antimicrobial activity)	S. mutans; also recorded: S. aereus; also recorded: S. epidermidis; also recorded: C. jeikeium; also recorded: C. xerosis; also recorded: C. striatum; also recorded: P. aeruginosa
1T-39 (FGFCVWMYQLLAGPPGPPA; Peptide with targeting and/or antimicrobial activity)	S. mutans; also recorded: P. aeruginosa
1T-40 (QRVSLWSEVEHEFR; Peptide with targeting and/or antimicrobial activity)	S. mutans; also recorded: P. aeruginosa
1T-41 (KRGSKIVIAIAVVLIVLAGVWVW; Peptide with targeting and/or antimicrobial activity)	S. mutans; also recorded: S. aureus; also recorded: S. epidermidis; also recorded: C. jeikeium; also recorded: C. striatum; also recorded: P. aeruginosa
1T-42 (TVLDWLSLALATGLFVYLLVALLRADRA; Peptide with targeting and/or antimicrobial activity)	S. aureus; also recorded: S. epidermidis; also recorded: C. xerosis; also recorded: C. striatum; also recorded: P. aeruginosa
1T-43 (DRCLSVLSWSPPKVSPLI; Peptide with targeting and/or antimicrobial activity)	C. jeikium; also recorded: P. aeruginosa
1T-44 (DPALADFAAGMRAQVRT; Peptide with targeting and/or antimicrobial activity)	S. mutans; also recorded: S. aureus; also recorded: S. epidermidis; also recorded: C. jeikeium; also recorded: C. striatum; also recorded: P. aeruginosa

— patent US20110039763A1, “TARGETED ANTIMICROBIAL MOIETIES” (C3 JIAN, INC., priority 2009, published 2011)
